Here are results for three compounds from US4624960A, “Sedative having analgesic and bradycardiac properties” (Boehringer Ingelheim Vetmedica GmbH, priority 1984, dated 1986).

SMILES strings stand for the structures. Where a name gives a salt, the structure may show the parent alone.

Experiment [1] in a line: Writhing Test (analgesic effect). The format is in vivo.
Another experiment is described as follows: Bradycardiac Effect. The format is in vivo.
Another experiment deals with Calf. Nature of the experiment: Premedication for surgical intervention (hernia umbilicalis) in calf. The format is in vivo. The settings on record: 0.01 mg/kg i.v., operation 20 minutes after injection. An excerpt:
(§1) The following table sets forth the correlation between activity and dosage of 2-[(2-bromo-6-fluorophenyl)-imino]-imidazolidine hydrochloride: […]

The next experiment concerns Horse. In words: Sedation and analgesia in horse, activity vs dosage. The format is in vivo.
From the text: as §1

The next experiment deals with Cattle (calf). In words: Sedation and analgesia in cattle (calf), activity vs dosage. It is filed as in vivo. Particulars: for Effect: analgesia / Effect: sedation / Effect: sleep: cattle (calf).
From the text: as §1

A further experiment deals with Pig. In words: Sedation and analgesia in pig, activity vs dosage. It is filed as in vivo.
From the text: as §1

Another experiment concerns Poultry. Nature of the experiment: Sedation in poultry, activity vs dosage. The format is in vivo.
From the text: as §1

Experiment [2] can be described thus: Bradycardiac effect (general statement). Particulars: in vivo.

`Clc1cccc(Cl)c1N=C1NCCN1` [2-[(2,6-Dichlorophenyl)-imino]-imidazolidine.HCl, reference compound] yielded an ED50 in experiment [1] of 17 µg/kg. The ED60 in “Bradycardiac Effect” turned out to be 10 µg/kg.
With `Cl.Fc1cccc(Br)c1N=C1NCCN1` [2-[(2-Bromo-6-fluorophenyl)-imino]-imidazolidine hydrochloride], the “Effect: analgesia during and after the operation” value in the experiment with Calf is “good”. Moreover, the “Effect: sedation during and after the operation” value in the experiment with Calf was “good”. Further, the “Effect: analgesia” value in the experiment with Horse (0.03 mg/kg i.m.) is recorded as “no”; in the experiment on Horse (0.03 mg/kg i.v.) it was “slight”; in the experiment on Horse (0.06 mg/kg i.m.), “rather weaker analgesia”; in the experiment on Horse (0.06 mg/kg i.v.), “good”; in the experiment with Horse (0.07 mg/kg i.v.), “good”; in the experiment with Horse (0.08 mg/kg i.m.), “good analgesia”. In addition, the “Effect: analgesia” value with Cattle (calf) (0.006 mg/kg i.v., i.m.) is recorded as “no analgesia”; with Cattle (calf) (0.009 mg/kg i.m., i.v. result: not total) it was “as with i.v”; in the experiment on Cattle (calf) (0.009 mg/kg i.v.) it was “not total”; in the experiment on Cattle (calf) (0.01 mg/kg i.m.) it was “moderate analgesia”; with Cattle (calf) (0.01 mg/kg i.v.), “moderate analgesia”; with Pig (0.01-0.03 mg/kg i.m.), “weak”. The “Effect: analgesia” value was “rather weaker” with Pig (0.03-0.06 mg/kg i.m.) and “good” in the experiment on Pig (0.06-0.1 mg/kg i.m.). The “Effect: sedation” value is listed as “light sedation” in the experiment with Horse (0.03 mg/kg i.m.); “light sedation” in the experiment with Horse (0.03 mg/kg i.v.); “moderate sedation” in the experiment with Horse (0.06 mg/kg i.m.); “strong sedation” in the experiment with Horse (0.06 mg/kg i.v.); “strong sedation” in the experiment on Horse (0.07 mg/kg i.v.); “strong sedation” with Horse (0.08 mg/kg i.m.). Also, the “Effect: sedation” value with Cattle (calf) (0.006 mg/kg i.v., i.m.) is listed as “low-level sedation”; in the experiment with Cattle (calf) (0.008 mg/kg i.m.) it was “good sedation”; in the experiment on Cattle (calf) (0.009 mg/kg i.m.), “very good sedation”; with Cattle (calf) (0.009 mg/kg i.v.) it was “very good sedation”; in the experiment on Cattle (calf) (0.01 mg/kg i.m.) it was “very good sedation”; in the experiment with Cattle (calf) (0.01 mg/kg i.v.), “very good sedation”. Besides, the “Effect: sedation” value in the experiment on Pig (0.01-0.03 mg/kg i.m.) is “weak sedation”; in the experiment on Pig (0.01-1.0 mg/kg i.m.), “strong sedation”; in the experiment with Pig (0.03-0.06 mg/kg i.m.), “good sedation”; with Pig (0.06-0.1 mg/kg i.m.), “very good sedation”; in the experiment on Poultry (2.0 mg/kg i.m.), “strong sedation”; with Poultry (2.0 mg/kg p.o.), “good sedation”. Moreover, the “Effect: sedation” value with Poultry (0.01-0.1 mg/kg i.m.) is reported as “weak sedation”; in the experiment with Poultry (0.1-0.5 mg/kg i.m.) it was “good sedation”; in the experiment with Poultry (0.5-1.0 mg/kg i.m.), “very good sedation”; with Poultry (0.5-1.0 mg/kg p.o.) it was “good sedation”. In addition, the “Effect: depth of sedation” value in the experiment on Cattle (calf) (calf, 0.04 mg/kg p.o.) was “very good depth of sedation”. The “Effect: rousability” value in the experiment with Cattle (calf) (calf, 0.04 mg/kg p.o.) was “animal cannot be roused”. Moreover, the “Effect: sleep” value with Cattle (calf) (0.008 mg/kg i.m.) was “deep”; in the experiment with Cattle (calf) (0.009 mg/kg i.m.), “deep sleep”; in the experiment with Cattle (calf) (0.009 mg/kg i.v.), “deep sleep”. In experiment [1], this compound had a median effective dose (ED50) of 4 µg/kg. Further, the ED60 in the experiment “Bradycardiac Effect” was found to be 3 µg/kg.
For the compound `Fc1cccc(Br)c1N=C1NCCN1` [2-[(2-bromo-6-fluorophenyl)-imino]-imidazolidine], in experiment [2], the bradycardiac effect entry was “marked bradycardiac effect”.
